Like-named read-outs stand apart in the source and are kept apart here.
Assays:
[1] = system: A549 cells; experiment: Cell Viability Assay, A549; assay type: cell-based; conditions: A549; human lung carcinoma; 72 h; CellTiter-Glo
[2] = system: MIA PaCa-2 cells; experiment: Cell Viability Assay, MIA PaCa-2; assay type: cell-based; conditions: Homo sapiens, MIA PaCa-2, 72 h, human pancreatic carcinoma, CellTiter-Glo
[3] = target: KRAS^G12C (Homo sapiens, UniProt P01116, C118A/G12C); experiment: Coupled Nucleotide Exchange Assay; assay type: biochemical; conditions: GDP-bound KRAS (aa 1-169) G12C/C118A; 2 h compound pre-incubation; SOS-mediated exchange, 30 min; cRAF binding (AlphaLISA)
Procedure, shortened: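 GDP-bound His-tagged KRAS aa 1-169 (G12C/C118A) pre-incubated 2 h with compound in 25 mM HEPES pH 7.4, 10 mM MgCl2, 0.01% Triton X-100 (±0.1% BSA), then SOS (aa 564-1049) plus GTP added for 30 min. GST-cRAF RBD binding read by AlphaLISA; DMSO-normalized, 4-parameter fit gives IC50.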

[4] = system: advanced or metastatic cancer with the KRAS G12C mutation; conditions: cited from earlier work; for disease control rate: Hong et al. 2020
[5] = system: KRAS p.G12C tumors; conditions: mice bearing KRAS p.G12C tumors; Hong et al. 2020; cited from earlier work
[6] = system: extracellular signal-regulated kinase (ERK); conditions: preclinical studies; Hong et al. 2020; cited from earlier work

Chain of KRAS^G12C (P01116 1-169 isoform P01116-2 G12C/C118A): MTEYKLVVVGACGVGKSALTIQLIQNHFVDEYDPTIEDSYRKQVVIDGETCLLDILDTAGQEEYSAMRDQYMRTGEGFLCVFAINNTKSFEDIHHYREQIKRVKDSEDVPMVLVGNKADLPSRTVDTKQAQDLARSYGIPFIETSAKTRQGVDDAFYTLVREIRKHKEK

| Structure (SMILES) | IC50 [1] | IC50 [2] | IC50 [3] | response by cancer type ([4]; NSCLC, colorectal, pancreatic, appendiceal, endometrial, esophageal, unknown primary, ampullary, gastric, small bowel, sinonasal, bile duct cancer, melanoma) | disease control rate ([4]; colorectal cancer, 42 subjects) | disease control rate ([4]; non-small cell lung cancer, 59 subjects) | disease control rate ([4]; other tumor types, 28 subjects) | tumor regression [5] | inhibition of phosphorylation of ERK [6] |
| --- | --- | --- | --- | --- | --- | --- | --- | --- | --- |
| C=CC(=O)N1CCN([C@@H]2CN(c3cc(N4CCC5(OCC=C5C)C(C)C4)nc(C(F)(F)F)n3)[C@@H]2C)CC1 (relative stereo) [Compound 3-060, 1-(4-((2R,3R)-1-(6-((5R,6S)-4,6-Dimethyl-1-oxa-8-azaspiro[4.5]dec-3-en-8-yl)-2-(trifluoromethyl)pyrimidin-4-yl)-2-methylazetidin-3-yl)piperazin-1-yl) prop-2-en-1-one] | > 5 µM | 1090 nM | 406 nM |  |  |  |  |  |  |
| C=CC(=O)N1CCN(C2CN(c3cc(N4CCC5(CCCO5)CC4)nc(C(F)(F)F)c3C#N)C2)CC1 [Compound 3-039, 4-(3-(4-acryloylpiperazin-1-yl)azetidin-1-yl)-6-(1-oxa-8-azaspiro[4.5]decan-8-yl)-2-(trifluoromethyl)nicotinonitrile] | > 5 µM | 2410 nM | 1650 nM |  |  |  |  |  |  |
| C=CC(=O)N1CCN(C2CN(c3cc(N4CCC5(CC4)OCc4cnccc45)nc(C(F)(F)F)c3C#N)C2)CC1 [Compound 3-043] | > 5 µM | 1290 nM | 1590 nM |  |  |  |  |  |  |
| C=CC(=O)N1CCN(c2nc(=O)n(-c3c(C)ccnc3C(C)C)c3nc(-c4c(O)cccc4F)c(F)cc23)[C@@H](C)C1 [Sotorasib, sotorasib] |  |  |  | either stable disease (SD) or partial response (PR) | 73.8% | 88.1% | 75.0% | durable complete tumor regression | inhibited nearly all detectable phosphorylation of extracellular signal-regulated kinase (ERK) |

Second part, led by results:

| IC50 [1] | IC50 [2] | IC50 [3] | Structure (SMILES) | response by cancer type ([4]; NSCLC, colorectal, pancreatic, appendiceal, endometrial, esophageal, unknown primary, ampullary, gastric, small bowel, sinonasal, bile duct cancer, melanoma) | disease control rate ([4]; colorectal cancer, 42 subjects) | disease control rate ([4]; non-small cell lung cancer, 59 subjects) | disease control rate ([4]; other tumor types, 28 subjects) | tumor regression [5] | inhibition of phosphorylation of ERK [6] |
| --- | --- | --- | --- | --- | --- | --- | --- | --- | --- |
| > 5 µM | 755 nM | 191 nM | C=CC(=O)N1CCN(C2CN(c3cc(N4CCC5(CC4)OC(C)C=C5C)nc(C(F)(F)F)c3C#N)C2)CC1 (stereo not drawn) [Compound 3-053, 4-(3-(4-Acryloylpiperazin-1-yl)azetidin-1-yl)-6-(2,4-dimethyl-1-oxa-8-azaspiro[4.5]dec-3-en-8-yl)-2-(trifluoromethyl)nicotinonitrile] |  |  |  |  |  |  |
| > 5 µM | 193 nM | 145 nM | C=CC(=O)N1CCN([C@@H]2CN(c3cc(N4CC[C@]5(C[C@H]4C)OC[C@@H](COC)n4ncc(C)c45)nc(C(F)F)n3)[C@@H]2C)CC1 (single isomer, unassigned) [Compound 3-090-1] |  |  |  |  |  |  |
| > 5 µM | 979 nM | 664 nM | C=CC(=O)N1CCN(C2CN(c3cc(N4CCC5(CC4)OCc4cnn(C)c45)nc(C(F)(F)F)c3C#N)C2)CC1 [Compound 3-049, 4-(3-(4-acryloylpiperazin-1-yl)azetidin-1-yl)-6-(1-methyl-1,4-dihydrospiro[furo[3,4-c]pyrazole-6,4′-piperidin]-1′-yl)-2-(trifluoromethyl)nicotinonitrile] |  |  |  |  |  |  |
